For 20 molecules, TGI and GI50 results are on record in PubChem BioAssay (NCI).

Some test systems named below: HCT-15 colon; HS 578T breast; LOX IMVI melanoma; MCF7 breast; OVCAR-5 ovarian; RPMI-8226 leukemia; SN12C renal; T-47D breast; TK-10 renal; UACC-62 melanoma.
Assay in all cases: DTP human tumour cell line panel, 48 h

“And” between values parts separate entries of the source, which are not always exact repeats. Equal values may be shown once.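 Method: 48-hour compound exposure of cells in 96-well plates, five concentrations, linear interpolation of endpoints. At the GI50, growth is halved. TGI denotes the concentration required for complete inhibition of growth.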 Where a SMILES comes first, the peptide text is derived from it. [ ]: non-standard residue; d: D form. The star is where a group is joined. ξ: configuration not given here. NMeY = CN[C@@H](Cc1ccc(O)cc1)C(=O)O; Cbz = O=C(OCc1ccccc1)*; ξA = CC(N)C(=O)O A value given as a limit tells only on which side of the number the result lay.

The term TGI denotes the concentration giving total growth inhibition. A low value points to more potent growth arrest. In the case of `COc1ccc(C[C@@H](C(=O)NCC(N)=O)N(C)C(=O)[C@@H]2CCCN2C(=O)[C@H](CC(C)C)NC(=O)C(C)NC(=O)OCc2ccccc2)cc1` (stereo not given in full) (Cbz-[ξA]LP[NMeY](Me)G-NH2), the TGI in the experiment with HCT-15 colon, in the experiment on HS 578T breast, with LOX IMVI melanoma, with MCF7 breast, in the experiment with OVCAR-5 ovarian and in the experiment on RPMI-8226 leukemia was more than 100 µM in each case. Also, the TGI in the experiment with SN12C renal, in the experiment on T-47D breast, in the experiment with TK-10 renal and with UACC-62 melanoma was more than 100 µM each time.
Take `O=C1c2ccccc2NC2C(O)c3ccccc3N12` (stereo not given): the total growth inhibition concentration (TGI) in the experiment with HCT-15 colon is more than 100 µM; in the experiment with HS 578T breast, more than 100 µM; with LOX IMVI melanoma, more than 100 µM; in the experiment on MCF7 breast, more than 100 µM; in the experiment on OVCAR-5 ovarian, more than 100 µM; in the experiment with RPMI-8226 leukemia, 54.3 µM. Moreover, the TGI was more than 100 µM in the experiment with SN12C renal, more than 100 µM in the experiment with T-47D breast, more than 100 µM with TK-10 renal and 56.8 µM in the experiment with UACC-62 melanoma.
Take `CC(=O)N[C@@H](Cc1ccc(O)cn1)C(=O)NCc1ccc2c(c1)OCO2`: the TGI in the experiment on HCT-15 colon, with HS 578T breast, in the experiment on LOX IMVI melanoma, with MCF7 breast, in the experiment on OVCAR-5 ovarian and in the experiment on RPMI-8226 leukemia was more than 100 µM each time. Also, the TGI with SN12C renal, with T-47D breast, in the experiment with TK-10 renal and with UACC-62 melanoma was more than 100 µM each time.
As usually defined, the GI50 is the concentration at which growth is held to half of that of the control. In the case of `CCCCCCCCCCCCCCCCP(=O)(O)OP(=O)(O)OCC1OC(n2ccc(N)nc2=O)C(O)C1O` (stereo not given), the GI50 with HCT-15 colon is 97.5 µM and 19.3 µM; in the experiment with HS 578T breast, 83.2 µM and 29.2 µM; in the experiment on MCF7 breast, > 100 µM and 11.4 µM; in the experiment on RPMI-8226 leukemia, > 100 µM and 35.1 µM; with SN12C renal, 54.5 µM and 9.05 µM; in the experiment with UACC-62 melanoma it was 44.5 µM and 9.63 µM. The TGI in the experiment on HCT-15 colon was more than 100 µM; with HS 578T breast it was more than 100 µM; in the experiment on LOX IMVI melanoma, more than 100 µM; with MCF7 breast, more than 100 µM; in the experiment with OVCAR-5 ovarian, 65.3 µM and > 64.4 µM; in the experiment with RPMI-8226 leukemia it was more than 100 µM. Moreover, the TGI with SN12C renal, with T-47D breast, with TK-10 renal and in the experiment with UACC-62 melanoma was more than 100 µM throughout.
For `Cc1[nH]c(=O)nc(N/N=C/c2ccc(Cl)c(Cl)c2)c1C(=O)Nc1ccc(Cl)c(Cl)c1`, the TGI in the experiment on HCT-15 colon was more than 42.9 µM; in the experiment with HS 578T breast, 27.2 µM; in the experiment on LOX IMVI melanoma, more than 57 µM; in the experiment with MCF7 breast it was 57 µM; in the experiment on OVCAR-5 ovarian, more than 46.3 µM; with RPMI-8226 leukemia, more than 100 µM. The TGI was more than 46.5 µM in the experiment with SN12C renal, 72 µM in the experiment with T-47D breast, 28 µM in the experiment with TK-10 renal and 41.2 µM in the experiment on UACC-62 melanoma.
Regarding `CC1(C)OC[C@@H](/C=C\CCO[Si](c2ccccc2)(c2ccccc2)C(C)(C)C)N1C(=O)c1ccccc1`, the TGI in the experiment on HCT-15 colon was more than 100 µM; in the experiment with HS 578T breast it was 55.1 µM; with LOX IMVI melanoma, 28.6 µM; in the experiment on MCF7 breast, 24.4 µM; in the experiment with OVCAR-5 ovarian it was 46 µM; in the experiment with RPMI-8226 leukemia it was 23.2 µM. Moreover, the TGI was 29.9 µM in the experiment with SN12C renal, more than 100 µM in the experiment with T-47D breast, more than 100 µM in the experiment with TK-10 renal and 33.1 µM in the experiment with UACC-62 melanoma.
For `CCCCCCCCCCCCOC1C(COCCN2CCCC2)OC2OC(C)(C)OC21` (stereo not given), the concentration for total growth inhibition (TGI) is 3.17 µM with HCT-15 colon; 3.51 µM in the experiment on HS 578T breast; 2.77 µM in the experiment on LOX IMVI melanoma; 3.1 µM in the experiment on MCF7 breast; 2.88 µM in the experiment on OVCAR-5 ovarian; 12.1 µM in the experiment on RPMI-8226 leukemia. Moreover, the TGI in the experiment with SN12C renal came out at 3.24 µM; with T-47D breast it was 4.11 µM; with TK-10 renal it was 3.03 µM; with UACC-62 melanoma it was 3.36 µM.
Consider `CCOC(=O)c1cc(-c2ccc(OC)c(OC)c2)c[nH]1`, for which the TGI in the experiment on HCT-15 colon, in the experiment on HS 578T breast, with LOX IMVI melanoma, in the experiment on MCF7 breast, with OVCAR-5 ovarian and with RPMI-8226 leukemia was more than 10 µM each time. In addition, the TGI in the experiment with SN12C renal, with T-47D breast, with TK-10 renal and with UACC-62 melanoma was more than 10 µM each time.
As to `c1ccc2c(c1)CC1c3[nH]c4ccccc4c3CCN21` (stereo not given), the total growth inhibition concentration (TGI) in the experiment on HCT-15 colon, in the experiment on HS 578T breast, in the experiment with LOX IMVI melanoma, in the experiment on MCF7 breast, with OVCAR-5 ovarian and in the experiment on RPMI-8226 leukemia was more than 10 µM each time. Besides, the TGI in the experiment on SN12C renal, in the experiment on T-47D breast, with TK-10 renal and in the experiment on UACC-62 melanoma was more than 10 µM each time.
In the case of `CC1=NN(c2ccc(C)cc2)C2(C1)SCC(=O)N2c1nc2ccccc2s1` (stereo not given), the TGI with HCT-15 colon was more than 100 µM; with HS 578T breast, more than 100 µM; in the experiment with LOX IMVI melanoma, 76.2 µM; with MCF7 breast it was 48.8 µM; in the experiment with OVCAR-5 ovarian, more than 100 µM; in the experiment with RPMI-8226 leukemia it was 50.1 µM. Besides, the TGI is 52.2 µM in the experiment on SN12C renal, 67.1 µM in the experiment with T-47D breast, 74.4 µM in the experiment with TK-10 renal and 45.6 µM in the experiment with UACC-62 melanoma.
For `COc1cc(C(=O)Nc2nnc(S(N)(=O)=O)s2)cc(OC)c1OC`, the TGI in the experiment with HCT-15 colon, in the experiment on HS 578T breast, with LOX IMVI melanoma, with MCF7 breast, in the experiment on OVCAR-5 ovarian and with RPMI-8226 leukemia was more than 100 µM throughout. In addition, the TGI in the experiment with SN12C renal, with T-47D breast, in the experiment with TK-10 renal and with UACC-62 melanoma was more than 100 µM each time.
Turning to `CC(C)=CC(=O)O[C@@H]1CC(C)(C)CC2C3=CCC4[C@]56CC[C@](O)(OC5)C(C)(C)C6CC[C@@]4(C)C3(C)CC[C@]21C(=O)O` (stereo not given in full), the TGI in the experiment on HCT-15 colon was more than 100 µM; in the experiment with HS 578T breast it was more than 100 µM; in the experiment with LOX IMVI melanoma it was 44.4 µM; with MCF7 breast it was more than 100 µM; with OVCAR-5 ovarian, more than 100 µM; with RPMI-8226 leukemia it was more than 100 µM. In addition, the TGI in the experiment on SN12C renal, in the experiment with T-47D breast, in the experiment with TK-10 renal and with UACC-62 melanoma was more than 100 µM each time.
As for `CCCCn1cc(C(=O)O)c(=O)c2c3sccc3ccc21`, the concentration for total growth inhibition (TGI) with HCT-15 colon, with HS 578T breast, with LOX IMVI melanoma, in the experiment with MCF7 breast, in the experiment on OVCAR-5 ovarian and with RPMI-8226 leukemia was more than 100 µM in each case. Moreover, the concentration for total growth inhibition (TGI) in the experiment on SN12C renal, in the experiment on T-47D breast, with TK-10 renal and with UACC-62 melanoma was more than 100 µM each time.
Turning to `C/C(=N\N=C(N)N)c1c(C(=O)OCCCCCCOC(=O)c2nc3sccn3c2/C(C)=N/N=C(N)N)nc2sccn12`, the TGI with HCT-15 colon, in the experiment with HS 578T breast, with LOX IMVI melanoma, with MCF7 breast, in the experiment on OVCAR-5 ovarian and in the experiment with RPMI-8226 leukemia was more than 100 µM in each case. Moreover, the TGI in the experiment with SN12C renal was more than 100 µM; in the experiment with T-47D breast, 42.5 µM; in the experiment with TK-10 renal it was 55.1 µM; with UACC-62 melanoma, more than 100 µM.
In the case of `O=C(Cc1nc2ccc(C(=O)c3ccccc3)cc2[nH]c1=O)C(=O)Nc1ccccc1[N+](=O)[O-]`, the TGI with HCT-15 colon, in the experiment with HS 578T breast, in the experiment with LOX IMVI melanoma, in the experiment on MCF7 breast, in the experiment on OVCAR-5 ovarian and with RPMI-8226 leukemia was more than 100 µM each time. Further, the total growth inhibition concentration (TGI) with SN12C renal, in the experiment with T-47D breast, in the experiment with TK-10 renal and in the experiment with UACC-62 melanoma was more than 100 µM each time.
Regarding `CC(=O)N(C(C)=O)n1c(Cc2ccc(Cl)cc2)nn(C(C)=O)c1=O`, the TGI in the experiment with HCT-15 colon, in the experiment on HS 578T breast, in the experiment with LOX IMVI melanoma, in the experiment with MCF7 breast, with OVCAR-5 ovarian and with RPMI-8226 leukemia was more than 100 µM in each case. The TGI with SN12C renal, in the experiment on T-47D breast, in the experiment with TK-10 renal and with UACC-62 melanoma was more than 100 µM each time.
With `COc1cc2c3c(n(CCCNCCO)c(=O)c2cc1OC)-c1cc2c(cc1C3=O)OCO2`, the GI50 was 0.548 µM and 0.657 µM in the experiment on HCT-15 colon; 14.4 µM in the experiment with OVCAR-5 ovarian; 0.173 µM in the experiment with RPMI-8226 leukemia; less than 0.0119 µM in the experiment on SN12C renal; 0.0394 µM with UACC-62 melanoma. Moreover, the TGI in the experiment on HCT-15 colon is 2.08 µM and 7.76 µM; in the experiment on HS 578T breast, 27.3 µM; with LOX IMVI melanoma it was 0.169 µM; with MCF7 breast, 0.155 µM and 0.113 µM; in the experiment with RPMI-8226 leukemia it was more than 100 µM; in the experiment with SN12C renal it was 1.19 µM. Moreover, the TGI is 1.52 µM in the experiment with T-47D breast; 28.5 µM with TK-10 renal; 0.842 µM and 0.779 µM in the experiment with UACC-62 melanoma.
With `CSc1c(C(C)=O)c(O)n(-c2ccc(Cl)cc2)c(=O)c1C#N`, the TGI in the experiment with HCT-15 colon is 99.5 µM; in the experiment on HS 578T breast, more than 100 µM; in the experiment with LOX IMVI melanoma it was more than 100 µM; with MCF7 breast it was more than 100 µM; with OVCAR-5 ovarian it was more than 100 µM; in the experiment with RPMI-8226 leukemia, 99.2 µM. In addition, the TGI with SN12C renal, in the experiment with T-47D breast, in the experiment on TK-10 renal and in the experiment on UACC-62 melanoma was more than 100 µM throughout.
As for `O=C1c2ccccc2S(=O)(=O)c2ccccc21`, the TGI in the experiment on HCT-15 colon, with HS 578T breast, with LOX IMVI melanoma, in the experiment with MCF7 breast, with OVCAR-5 ovarian and in the experiment on RPMI-8226 leukemia was more than 100 µM in each case. The TGI in the experiment on SN12C renal, with T-47D breast, with TK-10 renal and in the experiment with UACC-62 melanoma was more than 100 µM throughout.
Take `CN(C)c1ccc(-c2nc(-c3cc4c(ccc5ccccc54)oc3=O)cs2)cc1`: the TGI in the experiment with HCT-15 colon, with HS 578T breast, with LOX IMVI melanoma, in the experiment on MCF7 breast, with OVCAR-5 ovarian and in the experiment on RPMI-8226 leukemia was more than 100 µM each time. Also, the TGI with SN12C renal, in the experiment on T-47D breast, in the experiment on TK-10 renal and in the experiment with UACC-62 melanoma was more than 100 µM in each case.
